Data published in patent US12264158B2, “Protein kinase MKK4 inhibitors for promoting liver regeneration or reducing or preventing hepatocyte death” (HEPAREGENIX GMBH, priority 2018, dated 2025).

Experiments:
MEKK2 = molecular target: T1, MEKK2 (Homo sapiens, UniProt Q9Y2U5); test: Radiometric protein kinase assay, MEKK2; type: biochemical; settings: substrate Casein, ATP 0.2 μM; read-out: MEKK2, potency derived from IC50-values
T1 construct: purchased ProQinase #0583-0000-1
T1 sequence (Q9Y2U5 1-619): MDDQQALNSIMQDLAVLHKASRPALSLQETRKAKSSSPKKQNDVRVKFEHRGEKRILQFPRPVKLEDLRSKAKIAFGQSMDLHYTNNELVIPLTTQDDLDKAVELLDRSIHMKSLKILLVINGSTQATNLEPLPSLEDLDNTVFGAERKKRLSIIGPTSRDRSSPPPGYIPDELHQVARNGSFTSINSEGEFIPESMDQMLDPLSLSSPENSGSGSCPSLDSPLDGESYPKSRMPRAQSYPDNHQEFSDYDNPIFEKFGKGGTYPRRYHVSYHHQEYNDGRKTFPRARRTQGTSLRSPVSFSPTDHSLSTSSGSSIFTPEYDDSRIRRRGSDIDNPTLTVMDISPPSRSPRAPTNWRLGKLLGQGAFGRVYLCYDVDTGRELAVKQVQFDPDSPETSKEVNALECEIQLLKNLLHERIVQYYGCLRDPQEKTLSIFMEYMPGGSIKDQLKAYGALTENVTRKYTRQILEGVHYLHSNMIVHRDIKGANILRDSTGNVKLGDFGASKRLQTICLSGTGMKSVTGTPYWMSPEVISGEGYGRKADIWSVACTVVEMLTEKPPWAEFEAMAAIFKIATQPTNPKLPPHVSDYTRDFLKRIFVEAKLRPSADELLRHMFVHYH
Outline: (§1)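 Kinase activity measured radiometrically: stopped reactions were captured on filter plates, washed with 150 mM H3PO4 and ethanol, and incorporated radioactivity counted by liquid scintillation.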

MKK4 active = molecular target: T2, MKK4 active (Homo sapiens, UniProt P45985); test: Radiometric protein kinase assay, MKK4 active; type: biochemical; settings: substrate JNK1 KRKR, ATP 0.2 μM, read-out: MKK4, potency derived from IC50-values
T2 construct: purchased ProQinase #0948-0000-1
T2 sequence (P45985 1-399): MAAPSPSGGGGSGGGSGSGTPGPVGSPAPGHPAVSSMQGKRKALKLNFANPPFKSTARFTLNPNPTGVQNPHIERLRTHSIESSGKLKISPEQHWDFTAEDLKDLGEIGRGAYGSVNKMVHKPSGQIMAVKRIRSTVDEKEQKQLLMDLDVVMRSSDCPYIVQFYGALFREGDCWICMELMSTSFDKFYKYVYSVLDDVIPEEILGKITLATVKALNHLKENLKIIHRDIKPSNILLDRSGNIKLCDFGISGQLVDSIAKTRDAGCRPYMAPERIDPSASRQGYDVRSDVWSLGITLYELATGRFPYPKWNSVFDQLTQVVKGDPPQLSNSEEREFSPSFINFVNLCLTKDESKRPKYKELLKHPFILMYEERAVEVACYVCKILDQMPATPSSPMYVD
Outline: as §1

MKK4 = molecular target: T3, MKK4 (Homo sapiens, UniProt P45985); test: KINOMEscan competition binding assay, MKK4 potency; settings: concentration of 100 nM
T3 construct: S84/D399; host or cells: HEK-293
T3 sequence (P45985 84-399): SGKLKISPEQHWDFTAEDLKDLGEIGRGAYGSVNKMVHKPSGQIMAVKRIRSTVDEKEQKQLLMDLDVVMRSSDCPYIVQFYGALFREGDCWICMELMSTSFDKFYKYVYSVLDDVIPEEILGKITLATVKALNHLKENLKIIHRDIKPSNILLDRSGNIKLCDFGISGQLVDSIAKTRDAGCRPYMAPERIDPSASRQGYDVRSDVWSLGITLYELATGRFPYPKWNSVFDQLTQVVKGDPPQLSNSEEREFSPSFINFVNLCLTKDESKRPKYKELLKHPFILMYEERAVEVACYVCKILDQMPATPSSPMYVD
Outline: (§2)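 DNA-tagged kinases expressed in HEK-293 cells compete between test compound and immobilized ligand on blocked beads. Bound kinase is eluted and quantified by qPCR of the DNA tag. Compounds were tested at the indicated final concentrations, prepared from 10 mM stocks.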

MKK7 = molecular target: T4, MKK7 (Homo sapiens, UniProt O14733); test: KINOMEscan competition binding assay, selectivity against off-target MKK7; settings: concentration of 100 nM
T4 construct: M1/R419; host or cells: HEK-293
T4 sequence (O14733 1-419): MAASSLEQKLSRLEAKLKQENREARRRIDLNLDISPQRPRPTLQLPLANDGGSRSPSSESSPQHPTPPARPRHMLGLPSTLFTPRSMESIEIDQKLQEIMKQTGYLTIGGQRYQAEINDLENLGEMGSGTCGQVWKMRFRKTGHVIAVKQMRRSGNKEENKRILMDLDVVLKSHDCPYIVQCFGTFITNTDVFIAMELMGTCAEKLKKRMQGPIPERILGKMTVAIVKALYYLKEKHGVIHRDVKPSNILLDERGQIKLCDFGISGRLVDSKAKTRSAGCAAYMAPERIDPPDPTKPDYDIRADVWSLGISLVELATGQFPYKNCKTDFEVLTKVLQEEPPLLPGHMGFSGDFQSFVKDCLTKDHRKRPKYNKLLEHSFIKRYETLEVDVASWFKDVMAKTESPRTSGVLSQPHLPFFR
Outline: as §2

JNK1 = molecular target: T5, JNK1 (Homo sapiens, UniProt P45983); test: KINOMEscan competition binding assay, selectivity against off-target JNK1; settings: concentration of 100 nM
T5 construct: M1/Q384; host or cells: HEK-293
T5 sequence (P45983 1-384 isoform P45983-2): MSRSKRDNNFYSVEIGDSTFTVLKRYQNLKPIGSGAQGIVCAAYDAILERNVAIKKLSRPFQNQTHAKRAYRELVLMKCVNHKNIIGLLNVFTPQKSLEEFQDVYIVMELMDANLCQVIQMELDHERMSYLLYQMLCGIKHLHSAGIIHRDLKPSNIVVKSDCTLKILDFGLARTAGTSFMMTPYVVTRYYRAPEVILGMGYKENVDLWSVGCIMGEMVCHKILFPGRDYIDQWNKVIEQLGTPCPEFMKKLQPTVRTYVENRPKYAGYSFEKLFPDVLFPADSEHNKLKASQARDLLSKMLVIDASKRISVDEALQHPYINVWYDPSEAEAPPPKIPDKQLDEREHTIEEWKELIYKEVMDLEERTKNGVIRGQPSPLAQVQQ
Outline: as §2

MKK4-MEKK2 mix = molecular target: T6, MKK4-MEKK2 mix (Homo sapiens, UniProt P45985); test: Radiometric protein kinase assay, MEKK2 dependent MKK4 activation (cascade); type: biochemical; settings: substrate JNK1 KRKR, ATP 0.2 μM, read-out: Cascade, potency derived from IC50-values
T6 construct: MEKK2, recombinant, active: ProQinase product #0583-0000-1
T6 sequence (P45985 2-399): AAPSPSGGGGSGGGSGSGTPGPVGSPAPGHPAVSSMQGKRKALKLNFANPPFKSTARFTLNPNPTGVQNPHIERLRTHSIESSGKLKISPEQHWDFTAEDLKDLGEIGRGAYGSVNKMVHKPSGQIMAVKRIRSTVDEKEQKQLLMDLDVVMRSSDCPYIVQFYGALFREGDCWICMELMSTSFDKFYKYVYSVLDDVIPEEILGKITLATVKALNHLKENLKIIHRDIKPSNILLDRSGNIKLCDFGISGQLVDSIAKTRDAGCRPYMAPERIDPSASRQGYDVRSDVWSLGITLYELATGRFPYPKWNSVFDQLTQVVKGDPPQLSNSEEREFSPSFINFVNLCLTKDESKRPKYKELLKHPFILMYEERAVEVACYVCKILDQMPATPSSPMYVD
Outline: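 MKK4 (1 μM) was activated by MEKK2 (50 nM) in 50 mM HEPES pH 7.5, 50 mM NaCl, 3.8 mM MgCl2, 2.5 mM DTT and 10% glycerol with ATP, in the presence of compound at 1% final DMSO. Kinase activity was measured radiometrically by filter capture, H3PO4 washes and scintillation counting.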

BRaf = BRaf (Homo sapiens, UniProt P15056); test: KINOMEscan competition binding assay, selectivity against off-target BRaf; settings: concentration of 100 nM
Sequence of BRaf (P15056 whole entry): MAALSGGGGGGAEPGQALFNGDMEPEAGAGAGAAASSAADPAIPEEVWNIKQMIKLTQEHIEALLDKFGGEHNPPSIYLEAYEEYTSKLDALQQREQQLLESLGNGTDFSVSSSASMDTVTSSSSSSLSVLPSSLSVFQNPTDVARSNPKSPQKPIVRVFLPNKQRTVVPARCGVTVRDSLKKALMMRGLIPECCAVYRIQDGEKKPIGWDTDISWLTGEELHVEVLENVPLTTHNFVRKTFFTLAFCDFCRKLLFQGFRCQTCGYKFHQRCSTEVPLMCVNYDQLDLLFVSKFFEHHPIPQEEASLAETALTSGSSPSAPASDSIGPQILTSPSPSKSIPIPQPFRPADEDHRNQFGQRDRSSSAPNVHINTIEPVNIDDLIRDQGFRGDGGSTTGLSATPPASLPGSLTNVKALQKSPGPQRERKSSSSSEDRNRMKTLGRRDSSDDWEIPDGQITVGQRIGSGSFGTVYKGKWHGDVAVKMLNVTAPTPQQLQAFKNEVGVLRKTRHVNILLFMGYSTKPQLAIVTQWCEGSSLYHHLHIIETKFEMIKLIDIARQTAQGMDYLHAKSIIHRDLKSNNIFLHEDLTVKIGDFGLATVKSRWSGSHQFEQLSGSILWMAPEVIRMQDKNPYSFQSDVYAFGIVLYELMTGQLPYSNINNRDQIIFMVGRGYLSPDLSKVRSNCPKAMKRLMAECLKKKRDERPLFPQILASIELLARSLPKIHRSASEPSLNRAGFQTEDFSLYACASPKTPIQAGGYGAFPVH
Outline: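 Competition binding: test compound competes with an immobilized ligand for DNA-tagged BRaf, and kinase captured on the ligand is quantified by qPCR of the DNA tag. Compounds from 10 mM stocks were tested at the indicated final concentrations.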

Row | Compound | IC50 (MEKK2) [µM] | IC50 (MKK4 active) [nM] | MKK4, residual percent of control binding (PoC) (MKK4) | Selectivity vs. MKK7, ratio PoC(MKK7)/PoC(MKK4) (MKK7) | Selectivity vs. JNK1, ratio PoC(JNK1)/PoC(MKK4) (JNK1) | IC50 (MKK4-MEKK2 mix) [nM] | Selectivity vs. BRaf, ratio PoC(BRaf)/PoC(MKK4) (BRaf)
1 | CCCS(=O)(=O)Nc1ccc(F)c(C(=O)c2n[nH]c3ncc(-c4cccc(O)c4)cc23)c1F [Example 37, N-(2,4-difluoro-3-(5-(3-hydroxyphenyl)-1H-pyrazo-lo[3,4-b]pyridine-3-carbonyl)phenyl)propane-1-sulfon-amide] | 1 to 10 | < 500 | ++ (1 ≤ PoC < 10) | +++ (PoC(MKK7)/PoC(MKK4) ≥ 30) | ++ (30 > PoC(JNK1)/PoC(MKK4) ≥ 10) | 500 to 1000 | + (10 > PoC(BRaf)/PoC(MKK4) ≥ 3)
2 | CCCS(=O)(=O)Nc1ccc(F)c(C(=O)c2n[nH]c3ncc(-c4ccccc4)cc23)c1F [Example 2, N-(2,4-difluoro-3-(5-phenyl-1H-pyrazolo[3,4-b]pyridine-3-carbonyl)phenyl)propane-1-sulfonamide] | > 10 | < 500 | ++ (1 ≤ PoC < 10) | +++ (PoC(MKK7)/PoC(MKK4) ≥ 30) | ++ (30 > PoC(JNK1)/PoC(MKK4) ≥ 10) | 1000 to 10000 | ++ (30 > PoC(BRaf)/PoC(MKK4) ≥ 10)
3 | CCCS(=O)(=O)Nc1ccc(F)c(C(=O)c2n[nH]c3ncc(-c4ccc(F)cc4)cc23)c1F [Example 25, N-(2,4-difluoro-3-(5-(4-fluorophenyl)-1H-pyrazo-lo[3,4-b]pyridine-3-carbonyl)-phenyl)propane-1-sulfon-amide] | > 10 | 500 to 1000 | ++ (1 ≤ PoC < 10) | +++ (PoC(MKK7)/PoC(MKK4) ≥ 30) | +++ (PoC(JNK1)/PoC(MKK4) ≥ 30) | 1000 to 10000 | ++ (30 > PoC(BRaf)/PoC(MKK4) ≥ 10)
